Where a name gives a salt, the structure may show the parent alone.
How the values were obtained:
[1] = system: iPSC differentiation cultures on Laminin 521; assay: WNT agonist addition to iPSC directed differentiation (immunofluorescence); format: cell-based, human; details: for Stage 1 differentiation efficiency at day 6 (CD31 and CD34 immunofluorescence): 0.6 μM CHIR98014 or 6 μM CHIR99021 for the first 48 hours
Text: WNT signaling is important during development. The GSK3 kinase inhibitors CHIR98014 and CHIR99021 act as WNT agonists. […] The control and CHIR98014 cultures were then transitioned to Stage 2, where the production and release of preMKs were tracked by immunofluorescence staining of CD41 and CD43.

[2] = system: iPSC 3D differentiation cultures; assay: Soluble Laminin 521 addition in 3D iPSC differentiation, preMK yields; format: cell-based, human; details: for preMK yields in Stage 2 vs control without addition: addition at Day −1 or Day 6
Procedure: […] 24 hours later, the media was replaced with Stage 1 media and media exchanges were performed for 6 days. […] Media was then exchanged with Stage 2 media, with or without soluble Laminin 521. 24 hours later, daily half media exchanges were performed for up to 6 additional days.

[3] = system: human washed platelets; assay: Small-molecule loading of human washed platelets by passive diffusion; format: cell-based; details: 100 μM, 1e7 platelets in 1 ml, ambient temperature, dialysis cassette
Procedure: 100 μM of Doxorubicin was used with a preparation of 1e7 platelets in 1 ml of buffer and incubated at ambient temperature for 30, 120, 240, and 1440 minutes under constant agitation on an orbital shaker in a dialysis cassette (Thermofisher #88400). […] A kinetic study was employed to understand the minimum and maximum amount of time necessary for doxorubicin encapsulation in the washed platelets.

[4] = system: iPSC differentiation cultures; assay: Order and timing of Stage 1 growth factor addition, preMK yields; format: cell-based, human; details: Experiment B

In the case of CHIR98014, the “Stage 1 differentiation efficiency at day 6 (CD31 and CD34 immunofluorescence)” value [1] is reported as “dramatic increase” and the “Stage 2 output (visual estimation of CD41+ cells)” value ([1]; 0.6 μM in first 48 hours of Stage 1) is reported as “higher output”.

With “Laminin 521: soluble recombinant human protein Laminin 521” the “preMK yields in Stage 2 vs control without addition” value ([2]; 96-well U-bottom ultra-low adherent plate) was “increased the preMK yields”, the “preMK yields in Stage 2 vs control without addition” value ([2]; agitated 6-well ultra-low adherent plate on orbital shaker) was “increased the preMK yields” and the “Laminin 521 effect on preMK yields with single-cell passaged iPSCs” value ([2]; self-aggregation in NutriStem) was “effect was amplified”.

With Cc1c[nH]c(-c2cnc(NCCNc3ccc(C#N)cn3)nc2-c2ccc(Cl)cc2Cl)n1 [CHIR99021] the “Stage 1 differentiation efficiency at day 6 (CD31 and CD34 immunofluorescence)” value [1] was “dramatic increase”.

For COc1cccc2c1C(=O)c1c(O)c3c(c(O)c1C2=O)C[C@@](O)(C(=O)CO)C[C@@H]3O[C@H]1C[C@H](N)[C@H](O)[C@H](C)O1 [doxorubicin, Doxorubicin hydrochloride], the “incubation time sufficient to see detectable doxorubicin in platelets” value [3] was 30 min.

For “FGF2: basic fibroblast growth factor, Stage 1 media growth factor”, the “requirement of growth factor during Stage 1 differentiation” value [4] was “critical for differentiation to proceed effectively”.

B1: BMP4: bone morphogenic protein 4, Stage 1 media growth factor (protein, UniProt P12644 293-408, looked up)
Bone morphogenetic protein 4: SPKHHSQRARKKNKNCRRHSLYVDFSDVGWNDWIVAPPGYQAFYCHGDCPFPLADHLNSTNHAIVQTLVNSVNSSIPKACCVPTELSAISMLYLDEYDKVVLKNYQEMVVEGCGCR
For B1, the “requirement of growth factor during Stage 1 differentiation” value [4] was “dispensable beyond 24 hours”.
